Test results taken from patent US20190046552A1, “COMPOSITIONS AND METHODS FOR THE TREATMENT OF HCV INFECTION” (priority 2015, published 2019).
Where two headings read alike, the source gives them in different places.

Assay: Part B (MAD): plasma PK of Formula (IIa) and its metabolites after once-daily oral Formula (IIa) for 7 days, fasted
Assay type: in vivo, human
Settings: for Cmax / half-life / AUC(0-t) / Tmax / AUC(0-inf): human, in vivo
Experimental: Part B was a blinded, randomized, placebo-controlled MAD study consisting of four cohorts of eight subjects randomized 6:2 to receive Formula (IIa) or placebo. […] To control for the possible effect of the IL28b genotype, the number of subjects with CC alleles was capped at three per cohort.
The starting dose was determined by the SRC based on review of all safety and any available PK/PD data from Part A. All subjects were dosed in the fasted state with Formula (IIa) daily, from Day 1 until […]. All subjects had nothing by mouth other than water for at least 10 hours prior to daily dosing and for 4 hours thereafter. In Part B, all subjects were administered the study medication orally with approximately 240 mL of water at the same time every day (+/−10 minutes).
A subset of blood samples shown in Table 3 above was used for the PK evaluation of plasma trough concentrations (Table 4). In addition, blood sample assessment of antiviral response was collected according to the following sampling schedule for Part B (Table 4).
All plasma PK calculations were performed using actual time points calculated relative to the time of last drug administration.
PK analysis was conducted for all enrolled subjects that received any dose of Formula (IIa) with sufficient plasma sample data to assess PK parameters. […] Data analysis was performed using a validated version of WinNonlin® Enterprise (Version 5.2) software, and summary tables and figures were generated using a validated version of WinNonlin® Autopilot™ (Version 1.1.1) and other reporting tools, including SigmaPlot®.

For CO[C@H]1C(OP(=O)(OC[C@H]2O[C@@H](n3cnc4c(N)ncnc43)CC2O)SCOC(=O)OC(C)C)[C@@H](CO)O[C@H]1n1ccc(=O)[nH]c1=O (stereo partly shown) [Formula (IIa)], the Cmin (900 mg Formula (IIa) QD oral, fasted, Day 7, plasma, arithmetic mean (CV %)) was 0.00 (NC) ^ ng/ml, the Tmin (900 mg Formula (IIa) QD oral, fasted, Day 7, plasma, median (min, max)) was 0.00 h and the Cmax (200 to 900 mg Formula (IIa), Days 1 and 7, read-out: Cmax range) was 0.531 to 6.66 ng/mL. The half-life (Day 1, 400 mg and 900 mg QD doses, read-out: mean plasma t1/2 range) was 0.963 to 1.05 h, the AUC(0-t) (Day 1, 200-900 mg Formula (IIa) QD, read-out: mean AUC0-24 range across dose levels) was 0.512 to 7.91 ng·h/mL and the Cmax (Day 1, 200-900 mg Formula (IIa) QD, read-out: mean Cmax range across dose levels) was 0.531 to 3.75 ng/mL. For the same compound, the Tmax (Day 1, 200-900 mg Formula (IIa) QD, read-out: median Tmax, range across dose levels) was 1 to 1.51 h, the half-life (Day 7, 400 mg and 900 mg QD doses, read-out: mean plasma t1/2 range) was 0.684 to 1.07 h and the AUC(0-t) (Day 7, 200-900 mg Formula (IIa) QD, read-out: mean AUC0-24 range across dose levels) was 0.77 to 13.7 ng·h/mL. It also gave a Cmax (Day 7, 200-900 mg Formula (IIa) QD, read-out: mean Cmax range across dose levels) of 0.885 to 6.66 ng/mL, a Tmax (Day 7, 200-900 mg Formula (IIa) QD, read-out: median Tmax, range across dose levels) of 1 to 1.28 h and a half-life (Days 1 and 7, across dose levels, read-out: terminal half-life (t1/2), range of means) of 0.684 to 1.07 h. It also gave an AUC(0-t) (po, 200 mg, 200 mg Formula (IIa) QD oral, fasted, Day 1, plasma, arithmetic mean (CV %), read-out: AUC0-24) of 0.512 ng·h/mL, an AUC(0-t) (po, 200 mg, 200 mg Formula (IIa) QD oral, fasted, Day 1, plasma, arithmetic mean (CV %), read-out: AUC0-t) of 0.393 ng·h/mL and a Cmax (po, 200 mg, 200 mg Formula (IIa) QD oral, fasted, Day 1, plasma, arithmetic mean (CV %), read-out: Cmax) of 0.531 ng/mL. It also gave a Tmax (po, 200 mg, 200 mg Formula (IIa) QD oral, fasted, Day 1, plasma, median (min, max), read-out: Tmax) of 1 h, an AUC(0-t) (po, 200 mg, 200 mg Formula (IIa) QD oral, fasted, Day 7, plasma, arithmetic mean (CV %), footnote: AUC0-24 = AUC0-t on Day 7, read-out: AUC0-24) of 0.77 ng·h/mL and an AUC(0-t) (po, 200 mg, 200 mg Formula (IIa) QD oral, fasted, Day 7, plasma, arithmetic mean (CV %), read-out: AUC0-t) of 1.41 ng·h/mL. It also gave a Cmax (po, 200 mg, 200 mg Formula (IIa) QD oral, fasted, Day 7, plasma, arithmetic mean (CV %), read-out: Cmax) of 0.885 ng/mL, a Tmax (po, 200 mg, 200 mg Formula (IIa) QD oral, fasted, Day 7, plasma, median (min, max), read-out: Tmax) of 1 h and an AUC(0-t) (po, 400 mg, 400 mg Formula (IIa) QD oral, fasted, Day 1, plasma, arithmetic mean (CV %), read-out: AUC0-24) of 7.91 ng·h/mL. The AUC(0-t) (po, 400 mg, 400 mg Formula (IIa) QD oral, fasted, Day 1, plasma, arithmetic mean (CV %), read-out: AUC0-t) was 3.27 ng·h/mL, the Cmax (po, 400 mg, 400 mg Formula (IIa) QD oral, fasted, Day 1, plasma, arithmetic mean (CV %), read-out: Cmax) was 2.13 ng/mL and the half-life (po, 400 mg, 400 mg Formula (IIa) QD oral, fasted, Day 1, plasma, arithmetic mean (CV %), read-out: t1/2 (converted)) was 1.05 h. It also gave a Tmax (po, 400 mg, 400 mg Formula (IIa) QD oral, fasted, Day 1, plasma, median (min, max), read-out: Tmax) of 1.51 h, an AUC(0-t) (po, 400 mg, 400 mg Formula (IIa) QD oral, fasted, Day 7, plasma, arithmetic mean (CV %), footnote: AUC0-24 = AUC0-t on Day 7, read-out: AUC0-24) of 2.71 ng·h/mL and an AUC(0-t) (po, 400 mg, 400 mg Formula (IIa) QD oral, fasted, Day 7, plasma, arithmetic mean (CV %), read-out: AUC0-t) of 3.1 ng·h/mL. The Cmax (po, 400 mg, 400 mg Formula (IIa) QD oral, fasted, Day 7, plasma, arithmetic mean (CV %), read-out: Cmax) was 2.52 ng/mL, the half-life (po, 400 mg, 400 mg Formula (IIa) QD oral, fasted, Day 7, plasma, arithmetic mean (CV %), read-out: t1/2 (converted)) was 0.684 h and the Tmax (po, 400 mg, 400 mg Formula (IIa) QD oral, fasted, Day 7, plasma, median (min, max), read-out: Tmax) was 1.28 h. For the same compound, the AUC(0-t) (po, 900 mg, 900 mg Formula (IIa) QD oral, fasted, Day 1, plasma, arithmetic mean (CV %), read-out: AUC0-24) was 4.58 ng·h/mL, the AUC(0-t) (po, 900 mg, 900 mg Formula (IIa) QD oral, fasted, Day 1, plasma, arithmetic mean (CV %), read-out: AUC0-t) was 5.31 ng·h/mL and the Cmax (po, 900 mg, 900 mg Formula (IIa) QD oral, fasted, Day 1, plasma, arithmetic mean (CV %), read-out: Cmax) was 3.75 ng/mL. For the same compound, the half-life (po, 900 mg, 900 mg Formula (IIa) QD oral, fasted, Day 1, plasma, arithmetic mean (CV %), read-out: t1/2 (converted)) was 0.963 h, the Tmax (po, 900 mg, 900 mg Formula (IIa) QD oral, fasted, Day 1, plasma, median (min, max), read-out: Tmax) was 1.04 h and the AUC(0-t) (po, 900 mg, 900 mg Formula (IIa) QD oral, fasted, Day 7, plasma, arithmetic mean (CV %), footnote: AUC0-24 = AUC0-t on Day 7, read-out: AUC0-24) was 13.7 ng·h/mL. It also gave an AUC(0-t) (po, 900 mg, 900 mg Formula (IIa) QD oral, fasted, Day 7, plasma, arithmetic mean (CV %), read-out: AUC0-t) of 9.39 ng·h/mL, a Cmax (po, 900 mg, 900 mg Formula (IIa) QD oral, fasted, Day 7, plasma, arithmetic mean (CV %), read-out: Cmax) of 6.66 ng/mL and a half-life (po, 900 mg, 900 mg Formula (IIa) QD oral, fasted, Day 7, plasma, arithmetic mean (CV %), read-out: t1/2 (converted)) of 1.07 h. The Tmax (po, 900 mg, 900 mg Formula (IIa) QD oral, fasted, Day 7, plasma, median (min, max), read-out: Tmax) was 1.25 h, the AUC(0-inf) (400 mg Formula (IIa) QD oral, fasted, Day 1, plasma, arithmetic mean (CV %)) was 8.04 ng·h/mL and the AUC(0-inf) (900 mg Formula (IIa) QD oral, fasted, Day 1, plasma, arithmetic mean (CV %)) was 7.25 ng·h/mL. For the same compound, the mean trough levels (multiple once daily oral Formula (IIa) QD for 7 days, fasted) was “BLQ”.
